The values that follow are results of earlier work, collected in patent publication US12116608B2, “Extended metabolism methods for increasing and extracting metabolites from algae and microorganisms” (Synergraze Inc., priority 2022, dated 2024).

For the series the following is noted: general description.

`BrC(Br)Br` [bromoform]: the solubility in water result is given as “soluble in water”.
